{"source": "paper PMC7027461", "about": "(Clinical Pharmacology in Drug Development, 2020)", "key": {"[1]": {"parameters": "method as in PMID 19738123", "settings": "uncoated tablet formulation; cited from earlier work"}, "[2]": {"parameters": "method as in ref 29 = [29]; 29 U.S. Food and Drug Administration . Application Number: 211349Orig1s000; Multi‐Discipline Review. https://www.accessdata.fda.gov/drugsatfda_docs/nda/2018/211349Orig1s000MultidisciplineR.pdf . Publi", "settings": "single 40‐mg tablet; cited from earlier work"}, "[3]": {"parameters": "method as in ref 23 = [23]; 23 U.S. Food and Drug Administration . Application Number: 207997Orig1s000; 207997Orig2s000. Clinical Pharmacology and Biopharmaceutics Review(s). Available at: https://www.accessdata.fda.gov/drugsatf", "settings": "single 50‐mg dose, cited from earlier work"}, "[4]": {"parameters": "method as in data on file, Daiichi Sankyo, Inc", "settings": "subjects with AML; ref data on file, Daiichi Sankyo, Inc; cited from earlier work"}, "[5]": {"test": "Safety assessments (AEs, ECG/QTcF, vital signs, laboratory tests) in the food-effect study", "format": "in vivo, human", "procedure": "All randomized subjects who received quizartinib were included in the safety analysis population. Safety assessments included physical examinations, vital signs, 12‐lead ECGs, adverse event (AE) evaluations, and clinical laboratory tests. Hematology, chemistry, serology, and urinalysis tests were performed by a local laboratory. AEs and laboratory tests were graded and summarized based on National Cancer Institute Common Terminology Criteria for Adverse Events version 4.03 and assessed for severity, relation to study drugs, and clinical significance."}, "[6]": {"settings": "prior knowledge used for the study design and sampling duration; no reference given; cited from earlier work"}, "[7]": {"settings": "BCS classification; no reference given; cited from earlier work"}, "[8]": {"parameters": "method as in data on file, Daiichi Sankyo, Inc", "settings": "ref data on file, Daiichi Sankyo, Inc; cited from earlier work"}, "cytochrome P450 3A": {"system": "cytochrome P450 3A", "settings": "cited from earlier work"}}, "note": "Values joined by “and” are separate entries in the source; they are usually repeats but may differ in a detail not shown here. Identical values can stand only once. “Also recorded” adds a separate entry of the source. Like-named read-outs stand apart in the source and are kept apart here."}
{"molecule": "CC1(COc2ccc3c(c2)ncn3-c2ccc3cccc(N4CCC(N)CC4)c3n2)COC1", "note": "[crenolanib]", "values": [{"measurement": "effect of food on interpatient variability of Cmax and AUCinf", "setting": "[1]", "value": "increased"}, {"measurement": "effect of food on terminal half‐life", "setting": "[1]", "value": "no effects"}, {"measurement": "effect of food on tmax", "setting": "[1]", "value": "delays"}]}
{"molecule": "CCc1nc(C(N)=O)c(Nc2ccc(N3CCC(N4CCN(C)CC4)CC3)c(OC)c2)nc1NC1CCOCC1", "note": "[gilteritinib]", "values": [{"measurement": "decrease in AUC with a high‐fat meal vs the fasted state", "setting": "[2]", "value": "< 10", "unit": "%"}, {"measurement": "decrease in Cmax with a high‐fat meal vs the fasted state", "setting": "[2]", "value": 26, "unit": "%"}, {"measurement": "delay in median tmax with a high‐fat meal", "setting": "[2]", "value": 2, "unit": "h"}]}
{"molecule": "CO[C@@H]1[C@H](N(C)C(=O)c2ccccc2)C[C@H]2O[C@]1(C)n1c3ccccc3c3c4c(c5c6ccccc6n2c5c31)C(=O)NC4", "note": "[midostaurin]", "values": [{"measurement": "increase in exposure with food", "setting": "[3]; high‐fat meal (900–1000 calories, 50% fat content)", "value": 1.6, "unit": "fold"}, {"measurement": "increase in exposure with food", "setting": "[3]; standard meal (450 calories, 25% fat content)", "value": 1.2, "unit": "fold"}]}
{"molecule": "CC(C)(C)c1cc(NC(=O)Nc2ccc(-c3cn4c(n3)sc3cc(OCCN5CCOCC5)ccc34)cc2)no1.Cl.Cl", "note": "[quizartinib, N‐(5‐tert‐butyl‐isoxazol‐3‐yl)‐N′‐{4‐[7‐(2‐morpholin‐4‐yl‐ethoxy)imidazo[2,1‐b][1,3]benzothiazol‐2‐yl]phenyl}urea dihydrochloride]", "values": [{"measurement": "effective half‐life", "setting": "[4]", "value": 73, "unit": "h"}, {"measurement": "tolerability", "setting": "[5]; 30‐mg single dose, fed and fasted healthy subjects", "value": "safe and well tolerated"}, {"measurement": "subjects with maximum QTcF ≤450 milliseconds", "setting": "[5]; all subjects (N = 64)", "value": "64 (100%) n (%)"}, {"measurement": "subjects with maximum change from baseline QTcF ≤30 milliseconds", "setting": "[5]; all subjects (N = 64)", "value": 98.4, "unit": "%"}, {"measurement": "Number of TEAEs", "setting": "[5]; fasted (n = 34)", "value": 16}, {"measurement": "Number of treatment‐related AEs", "setting": "[5]; fasted (n = 34)", "value": 6}, {"measurement": "Subjects with a treatment‐related AE, n (%)", "setting": "[5]; fasted (n = 34)", "value": "4 (11.8%) n (%) and 4 (11.8) n (%)"}, {"measurement": "Subjects with any TEAE by maximum severity: Mild, n (%)", "setting": "[5]; fasted (n = 34)", "value": "7 (20.6) n (%)"}, {"measurement": "Subjects with any TEAE by maximum severity: Moderate, n (%)", "setting": "[5]; fasted (n = 34)", "value": "1 (2.9) n (%)"}, {"measurement": "Subjects with any TEAE by maximum severity: Severe, n (%)", "setting": "[5]; fasted (n = 34)", "value": "1 (2.9) n (%)"}, {"measurement": "Subjects with a TEAE, n (%)", "setting": "[5]; fasted (n = 34), single 30-mg dose", "value": "9 (26.5%) n (%) and 9 (26.5) n (%)"}, {"measurement": "Number of TEAEs", "setting": "[5]; fed (n = 30)", "value": 7}, {"measurement": "Number of treatment‐related AEs", "setting": "[5]; fed (n = 30)", "value": 4}, {"measurement": "Subjects with a treatment‐related AE, n (%)", "setting": "[5]; fed (n = 30)", "value": "2 (6.7%) n (%) and 2 (6.7) n (%)"}, {"measurement": "Subjects with any TEAE by maximum severity: Mild, n (%)", "setting": "[5]; fed (n = 30)", "value": "5 (16.7) n (%)"}, {"measurement": "Subjects with any TEAE by maximum severity: Moderate, n (%)", "setting": "[5]; fed (n = 30)", "value": "0 n (%)"}, {"measurement": "Subjects with any TEAE by maximum severity: Severe, n (%)", "setting": "[5]; fed (n = 30)", "value": "0 n (%)"}, {"measurement": "Subjects with a TEAE, n (%)", "setting": "[5]; fed (n = 30), single 30-mg dose", "value": "5 (16.7%) n (%) and 5 (16.7) n (%)"}, {"measurement": "Number of TEAEs", "setting": "[5]; overall (N = 64)", "value": 23}, {"measurement": "Number of treatment‐related AEs", "setting": "[5]; overall (N = 64)", "value": 10}, {"measurement": "Subjects with a treatment‐related AE, n (%)", "setting": "[5]; overall (N = 64)", "value": "6 (9.4%) n (%) and 6 (9.4) n (%)"}, {"measurement": "Subjects with any TEAE by maximum severity: Mild, n (%)", "setting": "[5]; overall (N = 64)", "value": "12 (18.8) n (%)"}, {"measurement": "Subjects with any TEAE by maximum severity: Moderate, n (%)", "setting": "[5]; overall (N = 64)", "value": "1 (1.6) n (%)"}, {"measurement": "Subjects with any TEAE by maximum severity: Severe, n (%)", "setting": "[5]; overall (N = 64)", "value": "1 (1.6) n (%)"}, {"measurement": "Subjects with a TEAE, n (%)", "setting": "[5]; overall (N = 64), single 30-mg dose", "value": "14 (21.9) n (%)"}, {"measurement": "serious AEs or discontinuations due to AEs", "setting": "[5]; single 30-mg dose, fed and fasted", "value": "no discontinuations due to adverse events occurred; also recorded: no serious AEs or discontinuations due to AEs"}, {"measurement": "subjects with maximum change from baseline QTcF >30 milliseconds and ≤60 milliseconds", "setting": "[5]; subject in the fasted group, percentage of N = 64", "value": "1 (1.6%) n (%)"}, {"measurement": "terminal elimination half‐life (t1/2)", "setting": "[6]", "value": "approximately 100 hours"}, {"measurement": "permeability", "setting": "[7]", "value": "low"}, {"measurement": "solubility", "setting": "[7]", "value": "low"}, {"measurement": "Plasma protein binding", "setting": "[8]", "value": "> 99", "unit": "%"}, {"measurement": "cytochrome P450 3A substrate status", "setting": "cytochrome P450 3A", "value": "substrate"}]}
